The results in this text go back to ChEMBL document CHEMBL1201862, “PubChem BioAssay data set” (2004).

The source made the active and inactive calls.

The first test concerns the target T1, Protein RecA (Mycobacterium tuberculosis, UniProt P9WHJ3).
T1 sequence (P9WHJ3 whole entry): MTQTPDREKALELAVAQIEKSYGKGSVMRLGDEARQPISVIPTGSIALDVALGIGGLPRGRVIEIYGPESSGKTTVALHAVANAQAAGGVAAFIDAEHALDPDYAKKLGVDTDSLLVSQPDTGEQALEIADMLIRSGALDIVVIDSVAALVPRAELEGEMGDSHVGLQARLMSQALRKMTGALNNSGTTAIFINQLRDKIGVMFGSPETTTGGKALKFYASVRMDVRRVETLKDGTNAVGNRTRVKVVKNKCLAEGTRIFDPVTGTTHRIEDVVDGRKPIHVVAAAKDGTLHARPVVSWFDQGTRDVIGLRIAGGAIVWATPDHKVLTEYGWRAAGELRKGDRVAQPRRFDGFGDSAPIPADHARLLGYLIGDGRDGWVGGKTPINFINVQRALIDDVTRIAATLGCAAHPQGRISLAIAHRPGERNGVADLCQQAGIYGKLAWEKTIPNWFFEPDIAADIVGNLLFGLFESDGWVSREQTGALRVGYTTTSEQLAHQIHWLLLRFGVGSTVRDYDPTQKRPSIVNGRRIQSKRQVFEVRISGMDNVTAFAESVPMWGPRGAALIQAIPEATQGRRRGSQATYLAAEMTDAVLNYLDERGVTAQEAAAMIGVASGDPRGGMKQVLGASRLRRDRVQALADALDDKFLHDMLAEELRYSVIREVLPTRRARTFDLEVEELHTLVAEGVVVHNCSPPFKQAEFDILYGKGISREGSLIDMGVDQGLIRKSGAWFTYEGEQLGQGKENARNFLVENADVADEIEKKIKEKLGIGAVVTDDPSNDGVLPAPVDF
The test can be described thus: Fluorescence Cell-Free Homogeneous Dose Retest to Identify Inhibitors of RecA-Intein Splicing Activity. [Related pubchem assays (depositor defined):AID2097, AID2223, AID489010, AID492950]. Type of test: functional.
For orientation: EC50 means the concentration giving half of the maximal effect. `Cc1ccc(C(=O)NC2(O)C(=O)c3ccccc3C2=O)cc1C`: the EC50 was 15.9 µM (active).

Take `O=[N+]([O-])c1c(Nc2ccccn2)cc(Cl)c2nonc12`: the EC50 is 1.02 µM (active).

`Cc1ccc(S(=O)(=O)/N=C2\C=C(Nc3cccc(C(=O)O)c3)C(=O)c3ccccc32)cc1`: the EC50 was 0.266 µM (active).

The target in the next test is T2, Apoptotic protease-activating factor 1 (Homo sapiens, UniProt O14727).
T2 sequence (O14727 whole entry): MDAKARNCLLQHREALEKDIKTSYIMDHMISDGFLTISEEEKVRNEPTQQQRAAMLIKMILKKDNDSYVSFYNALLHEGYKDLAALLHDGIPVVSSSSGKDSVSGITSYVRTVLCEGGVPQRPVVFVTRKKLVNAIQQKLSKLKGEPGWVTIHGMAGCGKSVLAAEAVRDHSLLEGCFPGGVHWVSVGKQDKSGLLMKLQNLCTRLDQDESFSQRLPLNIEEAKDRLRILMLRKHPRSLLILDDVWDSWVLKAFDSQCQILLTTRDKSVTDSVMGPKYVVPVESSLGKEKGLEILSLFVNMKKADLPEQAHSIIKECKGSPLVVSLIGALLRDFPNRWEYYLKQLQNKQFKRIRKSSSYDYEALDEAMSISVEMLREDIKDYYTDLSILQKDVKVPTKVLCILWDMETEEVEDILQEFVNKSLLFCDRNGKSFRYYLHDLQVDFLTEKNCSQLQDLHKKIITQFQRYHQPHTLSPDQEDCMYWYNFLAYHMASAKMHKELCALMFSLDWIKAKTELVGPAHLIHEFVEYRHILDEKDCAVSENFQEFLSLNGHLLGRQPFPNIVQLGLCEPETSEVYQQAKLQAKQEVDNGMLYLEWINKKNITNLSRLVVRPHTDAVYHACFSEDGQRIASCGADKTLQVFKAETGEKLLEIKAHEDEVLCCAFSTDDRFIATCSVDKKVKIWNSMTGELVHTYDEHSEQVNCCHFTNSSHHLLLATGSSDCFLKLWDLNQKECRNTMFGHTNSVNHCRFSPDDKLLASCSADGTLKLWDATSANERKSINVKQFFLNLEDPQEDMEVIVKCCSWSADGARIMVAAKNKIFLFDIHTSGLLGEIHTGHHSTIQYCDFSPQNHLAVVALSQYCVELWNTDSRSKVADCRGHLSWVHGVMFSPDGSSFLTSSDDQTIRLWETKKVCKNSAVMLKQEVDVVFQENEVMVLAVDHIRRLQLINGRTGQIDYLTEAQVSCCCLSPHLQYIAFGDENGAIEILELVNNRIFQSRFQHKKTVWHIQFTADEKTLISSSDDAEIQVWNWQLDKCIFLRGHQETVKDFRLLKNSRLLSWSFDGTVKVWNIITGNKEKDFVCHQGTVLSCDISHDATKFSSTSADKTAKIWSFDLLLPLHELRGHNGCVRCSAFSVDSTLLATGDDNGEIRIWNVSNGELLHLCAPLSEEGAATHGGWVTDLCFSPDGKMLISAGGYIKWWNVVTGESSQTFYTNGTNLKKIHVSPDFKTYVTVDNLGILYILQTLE
Type of test: functional.
As a reminder, the IC50 is the point on the concentration scale where inhibition reaches its midpoint. Consider `Cc1ccc(C(=O)NC2(O)C(=O)c3ccccc3C2=O)cc1C`, for which the IC50 was 5.13 µM (active).

In the case of `CC[C@@H](C)[C@H](CNC)NC[C@@H](Cc1cccc2ccccc12)NCCc1cccc(C(F)(F)F)c1`, the IC50 was 44.1 µM (active).

As for `Cc1ccc(S(=O)(=O)/N=C2\C=C(Nc3cccc(C(=O)O)c3)C(=O)c3ccccc32)cc1`, the IC50 was 7.32 µM (active).

The target in the next test is T3, Replicative DNA helicase DnaB (Mycobacterium tuberculosis, UniProt P9WMR3).
T3 sequence (P9WMR3 whole entry): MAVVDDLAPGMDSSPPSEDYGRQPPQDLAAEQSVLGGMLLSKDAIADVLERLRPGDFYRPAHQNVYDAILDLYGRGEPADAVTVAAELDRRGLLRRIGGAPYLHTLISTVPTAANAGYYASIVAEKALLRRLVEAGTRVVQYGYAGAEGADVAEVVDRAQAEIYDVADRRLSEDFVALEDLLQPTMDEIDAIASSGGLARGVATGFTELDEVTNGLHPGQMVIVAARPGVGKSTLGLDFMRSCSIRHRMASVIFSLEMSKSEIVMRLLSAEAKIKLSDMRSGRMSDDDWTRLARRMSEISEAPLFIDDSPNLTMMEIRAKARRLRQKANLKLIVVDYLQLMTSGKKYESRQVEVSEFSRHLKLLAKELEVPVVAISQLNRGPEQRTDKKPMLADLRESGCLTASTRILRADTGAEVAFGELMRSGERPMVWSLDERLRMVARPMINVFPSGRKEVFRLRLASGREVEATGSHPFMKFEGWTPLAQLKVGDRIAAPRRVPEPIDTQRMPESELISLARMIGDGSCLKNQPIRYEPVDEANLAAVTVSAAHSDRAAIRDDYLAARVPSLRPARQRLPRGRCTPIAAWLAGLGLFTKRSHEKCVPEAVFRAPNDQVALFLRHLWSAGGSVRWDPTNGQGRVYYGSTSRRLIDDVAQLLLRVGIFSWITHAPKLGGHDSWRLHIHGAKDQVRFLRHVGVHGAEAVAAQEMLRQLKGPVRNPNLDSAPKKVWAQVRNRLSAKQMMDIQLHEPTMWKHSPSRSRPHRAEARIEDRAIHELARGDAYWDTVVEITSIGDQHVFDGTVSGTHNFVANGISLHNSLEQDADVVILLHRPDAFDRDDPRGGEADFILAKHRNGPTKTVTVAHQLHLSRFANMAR
The test can be described thus: DnaB intein splicing inhibitors, dose response, biochemical, cell-free fluorescence (AID 449749). Type of test: functional.
The term AC50 denotes the concentration giving half of the maximal activity seen. `Cc1ccc(C(=O)NC2(O)C(=O)c3ccccc3C2=O)cc1C`: the AC50 was 6.24 µM (active).

Consider `O=[N+]([O-])c1c(Nc2ccccn2)cc(Cl)c2nonc12`, for which the AC50 is 1.79 µM (active).

`Cc1ccc(S(=O)(=O)/N=C2\C=C(Nc3cccc(C(=O)O)c3)C(=O)c3ccccc32)cc1`: the concentration at half-maximal activity (AC50) was 0.516 µM (active).
